Measurements from patent US20260028354A1, “TETRAHYDRONAPHTHALENE DERIVATIVES AS ESTROGEN RECEPTOR DEGRADERS” (REGENT OF THE UNIVERSITY OF MICHIGAN, priority 2022, published 2026).
Each block holds one molecule with its values, some of them ahead of it.

Test: Western blot analysis for "B" compounds
Assay type: cell-based
Settings: read-out: Traditional Western Degradation Potency (DC50)
Summary of the method: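 Compound-treated cells lysed in RIPA buffer with protease inhibitors; equal protein (BCA) run on 10% SDS-PAGE, transferred to PVDF and probed with target antibodies. Band intensities quantified by densitometry and normalized to GAPDH.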

Molecule: O=C1CCC(N2C(=O)c3cc4c(cc3C2=O)CN(C2CCC(C(=O)N3CCCC(Oc5ccc([C@@H]6c7ccc(O)cc7CC[C@@H]6c6ccccc6)cc5)C3)CC2)C4)C(=O)N1 (mixture of isomers) [Compound B15, 2-(2,6-dioxopiperidin-3-yl)-6-(4-(3-(4-((1R,2S)-6-hydroxy-2-phenyl-1,2,3,4-tetrahydronaphthalen-1-yl)phenoxy)piperidine-1-carbonyl)cyclohexyl)-6,7-dihydropyrrolo[3,4-f]isoindole-1,3(2H,5H)-dione]
DC50: 10 to 100 nM

Molecule: 3-(6-((1S,4s)-4-(3-((4-((1R,2S)-6-hydroxy-2-phenyl-1,2,3,4- tetrahydronaphthalcn-1-yl)phenyl)amino)azctidin-1- yl)cyclohexane-1-carbonyl)-1-oxo-3,5,6,7- tetrahydropyrrolo[3,4-f]isoindol-2(1H)-yl)piperidine-2,6-dione [Compound B110]
DC50: > 100 nM

Molecule: O=C1CCC(N2C(=O)c3cc4c(cc3C2=O)CN(C(=O)CN2CCC3(CC2)CN(c2ccc([C@@H]5c6ccc(O)cc6CC[C@@H]5c5ccccc5)cc2)C3)C4)C(=O)N1 (mixture of isomers) [Compound B29, 2-(2,6-dioxopiperidin-3-yl)-6-(2-(2-(4-((1R,2S)-6-hydroxy-2-phenyl-1,2,3,4-tetrahydronaphthalen-1-yl)phenyl)-2,7-diazaspiro[3.5]nonan-7-yl)acetyl)-6,7-dihydropyrrolo[3,4-f]isoindole-1,3(2H,5H)-dione]
DC50: > 100 nM

More lines, now with the values ahead:

DC50: 10 to 100 nM
Molecule: O=C1CCC(N2C(=O)c3cc4c(cc3C2=O)CN(CC(=O)N2CCC3(CC2)CCN(c2ccc([C@@H]5c6ccc(O)cc6CC[C@@H]5c5ccc(F)cc5)cc2)C3)C4)C(=O)N1 (stereo partly drawn) [Compound B55, 2-(2,6-dioxopiperidin-3-yl)-6-(2-(2-(4-((1R,2S)-2-(4-fluorophenyl)-6-hydroxy-1,2,3,4-tetrahydronaphthalen-1-yl)phenyl)-2,8-diazaspiro[4.5]decan-8-yl)-2-oxoethyl)-6,7-dihydropyrrolo[3,4-f]isoindole-1,3(2H,5H)-dione]

DC50: > 100 nM
Molecule: O=C1CCC(N2C(=O)c3cc4c(cc3C2=O)CCN(C(=O)CN2CCC3(CC2)CCN(c2ccc([C@@H]5c6ccc(O)cc6CC[C@@H]5c5ccccc5)cc2)CC3)CC4)C(=O)N1 (stereo partly drawn) [Compound B40, 2-(2,6-dioxopiperidin-3-yl)-7-(2-(9-(4-((1R,2S)-6-hydroxy-2-phenyl-1,2,3,4-tetrahydronaphthalen-1-yl)phenyl)-3,9-diazaspiro[5.5]undecan-3-yl)acetyl)-6,7,8,9-tetrahydroazepino[4,5-f]isoindole-1,3(2H,5H)-dione]

DC50: > 100 nM
Molecule: O=C1CCC(N2C(=O)c3cc4c(cc3C2=O)CN([C@H]2CC[C@@H](NC3CCN(c5ccc([C@@H]6c7ccc(O)cc7CC[C@@H]6c6ccccc6)cc5)CC3)CC2)C4)C(=O)N1 (stereo partly drawn) [Compound B96, 2-(2,6-dioxopiperidin-3-yl)-6-((1S,4s)-4-((1-(4-((1R,2S)-6-hydroxy-2-phenyl-1,2,3,4-tetrahydronaphthalen-1-yl)phenyl)piperidin-4-yl)amino)cyclohexyl)-6,7-dihydropyrrolo[3,4-f]isoindole-1,3(2H,5H)-dione]

DC50: > 100 nM
Molecule: O=C1CCC(N2C(=O)c3cc4c(cc3C2=O)CN(CC2(F)CCN(CC3CCN(c5ccc([C@@H]6c7ccc(O)cc7CC[C@@H]6c6ccccc6)cc5)CC3)CC2)C4)C(=O)N1 (stereo partly drawn) [Compound B270, 2-(2,6-dioxopiperidin-3-yl)-6-((4-fluoro-1-((1-(4-((1R,2S)-6-hydroxy-2-phenyl-1,2,3,4-tetrahydronaphthalen-1-yl)phenyl)piperidin-4-yl)methyl)piperidin-4-yl)methyl)-6,7-dihydropyrrolo[3,4-f]isoindole-1,3(2H,5H)-dione]
